These results are taken from paper PMC6789573, “Phosphonic Acid Analogues of Phenylglycine as Inhibitors of Aminopeptidases: Comparison of Porcine Aminopeptidase N, Bovine Leucine Aminopeptidase, Tomato Acidic Leucine Aminopeptidase and Aminopeptidase from Barley Seeds” (Pharmaceuticals, 2019).

One may read the Km as the concentration of substrate that gives half-maximal velocity.

Experiment [1] deals with T1, porcine aminopeptidase N (pAPN) (Sus scrofa, UniProt P15145).
T1 construct: Microsomal leucine aminopeptidase (APN, EC 3.4.11.2) from porcine kidney was purchased from Sigma Aldrich; purchased Sigma Aldrich; host or cells: porcine kidney (tissue-derived)
T1 sequence (P15145 1-963): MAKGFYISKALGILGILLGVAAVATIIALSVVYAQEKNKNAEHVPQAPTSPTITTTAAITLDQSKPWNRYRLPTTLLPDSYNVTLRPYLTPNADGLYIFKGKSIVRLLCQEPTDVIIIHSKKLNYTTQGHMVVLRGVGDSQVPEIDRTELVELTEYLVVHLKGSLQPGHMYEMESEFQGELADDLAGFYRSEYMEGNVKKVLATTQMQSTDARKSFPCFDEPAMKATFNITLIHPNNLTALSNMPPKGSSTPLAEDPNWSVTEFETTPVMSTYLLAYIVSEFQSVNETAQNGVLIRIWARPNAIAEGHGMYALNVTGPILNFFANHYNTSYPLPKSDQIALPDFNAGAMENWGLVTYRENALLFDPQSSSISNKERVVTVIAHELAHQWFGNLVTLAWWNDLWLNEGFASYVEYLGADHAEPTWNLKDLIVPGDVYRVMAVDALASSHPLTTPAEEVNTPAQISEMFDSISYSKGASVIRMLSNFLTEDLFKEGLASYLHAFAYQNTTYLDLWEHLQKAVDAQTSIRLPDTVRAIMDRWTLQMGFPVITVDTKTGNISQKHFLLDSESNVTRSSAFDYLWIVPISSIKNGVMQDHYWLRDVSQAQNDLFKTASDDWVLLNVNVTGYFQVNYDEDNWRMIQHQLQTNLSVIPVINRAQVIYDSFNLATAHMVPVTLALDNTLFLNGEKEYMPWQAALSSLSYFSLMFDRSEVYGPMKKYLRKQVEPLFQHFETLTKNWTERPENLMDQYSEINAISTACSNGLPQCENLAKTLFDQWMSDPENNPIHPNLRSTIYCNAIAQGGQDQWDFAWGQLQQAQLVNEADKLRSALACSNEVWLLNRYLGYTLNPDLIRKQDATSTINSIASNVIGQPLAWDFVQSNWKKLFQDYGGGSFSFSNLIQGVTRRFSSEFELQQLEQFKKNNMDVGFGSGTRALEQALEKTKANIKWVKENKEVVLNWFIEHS
Briefly: Inhibition of porcine kidney aminopeptidase N (L-Leu-pNa hydrolysis, absorbance at 405 nm). It is filed as biochemical. To be noted: for Ki / pAPN Ki + SD: racemic compounds, apparent Ki ± SD, 50 mM potassium phosphate pH 7.2, 37 °C, substrate L-Leu-pNa, in = inactive at a concentration of 1 mM; for inhibitory action: pAPN. On the procedure: Microsomal leucine aminopeptidase (APN, EC 3.4.11.2) from porcine kidney was purchased from Sigma Aldrich. It was applied directly in kinetic measurements after dissolving in 50 mM potassium phosphate (pH 7.2). Such a solution should be stored in 4 °C for no longer than 2 days.
(§1) The activity of pAPN (KM = 0.52 mM) was determined as described in the literature. The activity of aminopeptidase from barley seeds was determined at 37 °C in 50 mM Tris-HCl, pH 8.0, containing 50 mM NaCl and 10 mM β-mercaptoethanol using substrate L-leucine-p-nitroanilidine (L-Leu-pNa) dissolved in DMSO. The kinetics parameters of the purified enzyme were measured for L-Leu-pNa at ten final concentrations (ranging from 0.1 to 1.0 mM) and being repeated two times. The KM value of barley seeds aminopeptidase was determined by using the Lineweaver–Burk weighted regression method (see Table S7 and Plot 1 in the Supplementary Information).
The assay mixture of the pAPN, totaling 1.01 mL, contained 50 mM potassium phosphate buffer (pH 7.2), 0.025 mL of the substrate L-Leu-pNa dissolved in DMSO (used in 0.4–0.1 mM range of the final concentration), 0.05 mL of the potential inhibitor in reaction buffer (in a concentration dependent on the potency of the compound), and 0.01 mL of the enzyme solution (4µg/mL final concentration).
(§2) The progress of the enzymatic reaction for both enzymes was measured at 37 °C for 10 min and was monitored spectrophotometrically (UV-VIS Spectrophotometer, JASCO V-730) by following the change in absorbance at 405 nm (formation of p-nitroaniline). The extinction coefficient for pNa was 9620 M^−1cm^−1.
(§3) Inhibition constants were determined considering four substrate concentrations and five concentrations of each inhibitor, with each measurement being repeated at least twice.
(§4) The rate of enzymatic reaction was studied following the reaction progress (changes in absorbance of L-Leu-pNa over time). Kinetics constants, namely Ki and IC50, and the type of the inhibition were determined using Lineweaver–Burk, Dixon, and Hanes–Wolf procedures. For each parameter, relative errors were calculated.

Experiment [2] deals with aminopeptidase from barley seeds. Nature of the experiment: Inhibition of aminopeptidase from barley seeds (L-Leu-pNa hydrolysis, absorbance at 405 nm). It counts as biochemical, barley (Hordeum vulgare L.). To be noted: for Ki / Barley Seed AP Ki + SD: racemic compounds, apparent Ki ± SD, 50 mM Tris-HCl pH 8.0, 37 °C, substrate L-Leu-pNa, in = inactive at a concentration of 1 mM; for Ki: read-out: Barley Seed AP Ki + SD; for inhibitory action: barley enzyme. On the procedure: Aminopeptidase from barley seeds (Hordeum vulgare L.) was isolated and purified based on the procedure described previously. The following steps were used: (i) ammonium sulfate precipitation, (ii) gel chromatography (Sephadex G-25, Sephacryl HR 300), followed by (iii) ion chromatography (DEAE—Sepharose). The molecular mass of the extracted enzyme was ~58 kDa. Because of the low stability of the concentrated enzyme solution, it was prepared directly before each kinetic study.
as §1
The assay mixture of the aminopeptidase from barley seeds, totaling 1.095 mL, contained 50 mM Tris-HCl buffer (pH 8.0) with 50 mM NaCl and 10 mM β-mercaptoethanol, 0.025 mL of the substrate L-Leu-pNa dissolved in DMSO (used in 0.4–0.1 mM range of the final concentration), 0.05 mL of varying concentrations of the potential inhibitor (dependent on the potency of the compound), and 0.02 mL enzyme (0.030 mg of protein).
as §2, §3, §4
The progress of the enzymatic reactions was monitored spectrophotometrically (UV-VIS Spectrophotometer JASCO V-730) by following the change in absorbance at 405 nm (formation of p-nitroanilide). The extinction coefficient for L- […]
The kinetic parameters (KM and Vmax) for aminopeptidase from barley seeds were determined by using the Lineweaver–Burk (L-B) weighted regression method. The measured KM value was 0.21 mM ± 0.14 and was used to determine the inhibitory constants of the all evaluated inhibitors.
Table S7. The kinetic parameters characterizing activity of the isolated aminopeptidase from barley seeds. […]
Lineweaver-Burk regression
Plot S1. Graphical determination of the KM value for aminopeptidase from barley seeds by using Lineweaver-Burk: unweighted (blue line) and weighted (red line) regression method.

With `NC(c1ccccc1F)P(=O)(O)O` (centres unmarked) [Compound 1], in experiment [1], the Ki was found to be 232 ± 22 µM.

With `NC(c1cccc(F)c1)P(=O)(O)O` (centres unmarked) [Compound 2], the Ki was determined as 122 ± 10 µM in experiment [1] and 311 ± 27 µM in experiment [2].

As for `NC(c1ccc(F)cc1)P(=O)(O)O` (centres unmarked) [Compound 3], the Ki in experiment [2] turned out to be 1100 ± 57 µM.

On to `NC(c1ccc(F)cc1F)P(=O)(O)O` (centres unmarked) [Compound 4], for which the Ki in experiment [2] was determined as 1420 ± 83 µM.

Turning to `NC(c1ccc(F)c(F)c1)P(=O)(O)O` (centres unmarked) [Compound 5], the Ki in experiment [2] worked out at 549 ± 54 µM.

For `NC(c1c(F)cc(F)cc1F)P(=O)(O)O` (centres unmarked) [Compound 6], in experiment [1], the “pAPN Ki + SD” value is given as “in ^2”. In addition, the “Barley Seed AP Ki + SD” value in experiment [2] was “in ^2”.

As to `NC(c1ccc(F)c(Cl)c1)P(=O)(O)O` (centres unmarked) [Compound 7], in experiment [2], the Ki stood at 62.1 ± 2.3 µM.

Take `NC(c1ccc(Cl)c(F)c1)P(=O)(O)O` (centres unmarked) [Compound 8]: the Ki in experiment [2] came to 103 ± 10 µM.

As for `NC(c1ccc(Cl)cc1F)P(=O)(O)O` (centres unmarked) [Compound 9], in experiment [2], the Ki was 818 ± 43 µM.

Regarding `NC(c1ccc(C(F)(F)F)cc1)P(=O)(O)O` (centres unmarked) [Compound 10], the Ki in experiment [1] was 56.3 ± 2.2 µM; in experiment [2] it was 686 ± 70 µM.

As for `NC(c1cc(F)cc(C(F)(F)F)c1)P(=O)(O)O` (centres unmarked) [Compound 11], the Ki in experiment [1] amounted to 164 ± 7.7 µM; in experiment [2], 1030 ± 73 µM.

For the compound `NC(c1ccc(C(F)(F)F)cc1F)P(=O)(O)O` (centres unmarked) [Compound 12], in experiment [1], the “inhibitory action” value was “practically no inhibitory action” and the “pAPN Ki + SD” value is “in ^2”. In addition, in experiment [2], the “inhibitory action” value was “practically no inhibitory action” and the “Barley Seed AP Ki + SD” value is listed as “in ^2”.

In the case of `NC(c1c(F)c(F)c(F)c(F)c1F)P(=O)(O)O` (centres unmarked) [Compound 13], in experiment [1], the “inhibitory action” value was “practically no inhibitory action” and the “pAPN Ki + SD” value is “in ^2”. In experiment [2], the “inhibitory action” value is “practically no inhibitory action” and the “Barley Seed AP Ki + SD” value was “in ^2”.

Take `NC(c1ccc(O)cc1F)P(=O)(O)O` (centres unmarked) [Compound 14]: the “Barley Seed AP Ki + SD” value in experiment [2] is reported as “in ^2”.

For `CC(C)C[C@H](N)C(=O)Nc1ccc([N+](=O)[O-])cc1` [L-Leu-pNa, L-leucine-p-nitroanilidine, reference compound], the Km in experiment [1] (substrate of pAPN) amounted to 520 µM; in experiment [2] (substrate of barley seed aminopeptidase, Lineweaver-Burk weighted regression, 37 °C, pH 8.0), 210 µM.
